According to PubChem BioAssay (NCI):
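Exposure lasted 48 hours, with cells grown in 96-well plates and compounds tested at five concentrations. GI50 is the concentration that inhibits growth by half. TGI marks complete inhibition of growth.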

Columns and labels:
Assay in all cases: inhibition of tumour cell growth, NCI panel, 48 h
786-0 renal = test system: 786-0 renal
BT-549 breast = test system: BT-549 breast
EKVX NSCLC = test system: EKVX NSCLC
HCT-116 colon = test system: HCT-116 colon
K-562 leukemia = test system: K-562 leukemia
LOX IMVI melanoma = test system: LOX IMVI melanoma
SNB-75 CNS = test system: SNB-75 CNS
T-47D breast = test system: T-47D breast
U251 CNS = test system: U251 CNS
UACC-62 melanoma = test system: UACC-62 melanoma

Structure (SMILES)	GI50 (786-0 renal) [nM]	TGI (786-0 renal) [nM]	GI50 (BT-549 breast) [nM]	TGI (BT-549 breast) [nM]	GI50 (EKVX NSCLC) [nM]	TGI (EKVX NSCLC) [nM]	GI50 (HCT-116 colon) [nM]	TGI (HCT-116 colon) [nM]	GI50 (K-562 leukemia) [nM]	TGI (K-562 leukemia) [nM]	GI50 (LOX IMVI melanoma) [nM]	TGI (LOX IMVI melanoma) [nM]	GI50 (SNB-75 CNS) [nM]	TGI (SNB-75 CNS) [nM]	GI50 (T-47D breast) [nM]	TGI (T-47D breast) [nM]	GI50 (U251 CNS) [nM]	TGI (U251 CNS) [nM]	GI50 (UACC-62 melanoma) [nM]	TGI (UACC-62 melanoma) [nM]
C#CC1(O)C(COP(=O)(O)OC2CC(n3cc(F)c(=O)[nH]c3=O)OC2CO)OC(n2ccc(N)nc2=O)C1O (stereo unspecified)	< 11.7	> 100000	< 15.7	909	738	16000	< 10	> 100000	10.1	> 100000	< 10	1870	< 16.9	1180	< 15.7	> 51700	< 13.8	> 100000	19	1820
CC(C)c1ccc(C(=O)Nc2sc3c(c2C#N)CCC(=O)C3)cc1	670	> 21800	306	3130	1940	> 88800	180	> 24300	203	–	390	> 33400	601	5380	263	1480	338	> 100000	318	1600
CCOC(=O)c1[nH]c(-c2ccc(Cl)cc2)cc1-c1cccnc1	440	8580	270	1460	1350	> 100000	387	> 100000	391	> 100000	659	> 100000	738	> 100000	612	> 100000	622	> 100000	843	> 100000
CN(C)N1C(=O)c2ccccc2NC1c1ccccc1 (stereo unspecified)	–	> 100000	–	> 100000	–	> 100000	–	> 100000	–	–	–	> 100000	–	> 100000	–	> 100000	–	> 100000	–	> 100000
COc1cc(/C=C\[N+](=O)[O-])ccc1OCc1ccccc1	1840	3740	1580	3300	3710	17600	–	–	2060	11100	1000	2300	1630	6790	2250	7440	1550	3010	1700	4670
